Consider 1 compound from paper PMC3838380, “Investigating the Allosteric Regulation of YfiN from Pseudomonas aeruginosa: Clues from the Structure of the Catalytic Domain” (PLoS ONE, 2013).

As usually defined, the Kd is the equilibrium constant for the complex coming apart. The low end stands for tighter binding, the high end for weaker binding.

One assay concerns the target T1, YfiNHAMP-GGDEF (Pseudomonas aeruginosa, UniProt Q9I4L5).
T1 construct: gene tpbB; cytosolic HAMP-GGDEF portion, residues 183-435, C-terminal His-tag (pET24b), synthetic gene, E. coli BL21(DE3), about 28 kDa, monomeric by AUC
Put plainly: isothermal titration calorimetry. It is filed as binding. From the text:
isothermal titration calorimetry on YfiNHAMP-GGDEF
Background: In ITC the heat of successive injections is recorded.

Another assay deals with T2, YfiNGGDEF (Pseudomonas aeruginosa, UniProt Q9I4L5).
T2 construct: gene tpbB
Kind of assay: isothermal titration calorimetry. It is filed as binding. From the text:
isothermal titration calorimetry on YfiNGGDEF

T1 sequence (Q9I4L5 183-435): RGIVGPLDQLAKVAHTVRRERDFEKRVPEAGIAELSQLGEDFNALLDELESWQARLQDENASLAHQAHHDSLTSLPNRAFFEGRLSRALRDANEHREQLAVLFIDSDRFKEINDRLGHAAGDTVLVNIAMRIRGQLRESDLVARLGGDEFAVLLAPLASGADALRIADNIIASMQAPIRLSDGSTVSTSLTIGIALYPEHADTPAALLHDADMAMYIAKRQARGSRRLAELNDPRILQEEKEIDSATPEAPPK
T2 sequence (Q9I4L5 232-435): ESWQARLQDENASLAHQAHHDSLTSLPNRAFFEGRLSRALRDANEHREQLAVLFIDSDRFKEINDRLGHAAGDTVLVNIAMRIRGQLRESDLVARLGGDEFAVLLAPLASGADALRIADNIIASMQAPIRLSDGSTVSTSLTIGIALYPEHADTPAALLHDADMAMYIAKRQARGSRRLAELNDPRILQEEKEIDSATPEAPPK

Regarding `Nc1nc2c(ncn2[C@@H]2O[C@H](COP(=O)(O)OP(=O)(O)OP(=O)(O)O)[C@@H](O)[C@H]2O)c(=O)[nH]1` [GTP], the figures for the Kd on YfiNHAMP-GGDEF and at YfiNGGDEF were 180 nM and 67 nM, respectively.
